Legend:
plasmin = target: T1, plasmin (Homo sapiens, UniProt P00747); assay: Inhibition of plasmin (Ki); type: biochemical; conditions: Table 26
T1 construct: trypsin and the related enzymes thrombin, plasmin, factor Xa, tPA

factor XIIa = target: T2, factor XIIa (Homo sapiens, UniProt P00748); assay: Inhibition of factor XIIa (Ki); type: biochemical; conditions: Table 26
T2 construct: glandular kallikrein, factor XIIa and plasma kallikrein
T2 sequence (P00748 373-615 limits assumed): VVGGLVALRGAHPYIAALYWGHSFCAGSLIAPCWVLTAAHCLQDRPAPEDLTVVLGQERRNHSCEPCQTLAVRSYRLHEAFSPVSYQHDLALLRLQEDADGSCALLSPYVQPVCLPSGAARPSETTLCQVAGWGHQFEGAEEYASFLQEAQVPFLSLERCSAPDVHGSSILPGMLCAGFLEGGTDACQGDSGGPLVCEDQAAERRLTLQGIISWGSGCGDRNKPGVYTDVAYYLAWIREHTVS

tPA = tPA (Homo sapiens, UniProt P00750); assay: Inhibition of tPA (Ki); type: biochemical; conditions: Table 26
human plasma = conditions: in vitro, FIG. 4
Protocol: Various coagulation tests were used in vitro to determine the efficacy of the inhibitors towards the thrombin-induced coagulation of its natural substrate fibrinogen. For that purpose, the thrombin time (TT), the activated partial thromboplastin time (aPTT) and the prothrombin time (PT, Quick value) were determined in human plasma.

thrombin = thrombin (Bos taurus, UniProt P00735); assay: Inhibition of thrombin (dissociation constant Ki); type: biochemical
factor Xa = factor Xa (Bos taurus, UniProt P00743); assay: Inhibition of factor Xa (dissociation constant Ki); type: biochemical; conditions: Tables 19-25; read-out: Ki, Factor Xa
glandular kallikrein = glandular kallikrein (Sus scrofa, UniProt P00752); assay: Inhibition of glandular kallikrein (Ki); type: biochemical; conditions: Table 26; read-out: Ki, Gland. Kallikrein
plasma kallikrein = target: T3, plasma kallikrein (Homo sapiens, UniProt P03952); assay: Inhibition of plasma kallikrein (Ki); type: biochemical; conditions: Table 26
T3 construct: glandular kallikrein, factor XIIa and plasma kallikrein

in vivo = conditions: mouse
[1] = Plasma concentration in rats after oral administration (HPLC); conditions: rat, plasma, po, 100 mg/kg
Protocol: (§1) For the pharmacokinetic characterization, the plasma concentration of selected derivatives was determined in rats after intravenous (i.v.), subcutaneous (s.c.) and peroral (p.o.) application according to the following three-step procedure:
(§2) 1. A physiological NaCl solution of the substance to be tested was submitted to high pressure liquid chromatography (HPLC) in order to determine its characteristic substance-specific retention time with the chosen test conditions.
(§3) 2. The substance to be tested was diluted in vitro in rat plasma. This solution was also submitted to HPLC to see whether the characteristic peak of the substance once again appeared at the substance-specific retention time.
(§4) 3. […] Blood samples were taken at time intervals of 15 minutes, from which plasma samples were prepared by centrifugation; those samples were also submitted to HPLC to see whether the characteristic peak of the substance appeared again at the substance-specific retention time.

[2] = Plasma concentration in rats after intravenous administration (HPLC); conditions: for Concentration in plasma: i.v. 1 mg/kg
[3] = Plasma concentration in rats after subcutaneous administration (HPLC); conditions: rat
Protocol: as §1, §2, §3, §4

trypsin = target: T4, trypsin (Bos taurus, UniProt P00760); assay: Inhibition of trypsin (Ki); type: biochemical; conditions: Table 26
T4 sequence (P00760 24-246): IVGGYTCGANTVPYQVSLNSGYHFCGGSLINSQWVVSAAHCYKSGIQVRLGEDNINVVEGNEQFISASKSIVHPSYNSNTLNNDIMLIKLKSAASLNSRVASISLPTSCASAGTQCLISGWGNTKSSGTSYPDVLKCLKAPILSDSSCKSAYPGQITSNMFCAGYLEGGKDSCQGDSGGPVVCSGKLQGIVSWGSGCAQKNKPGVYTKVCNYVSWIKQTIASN

T3 sequence (P03952 391-638 limits assumed, species assumed): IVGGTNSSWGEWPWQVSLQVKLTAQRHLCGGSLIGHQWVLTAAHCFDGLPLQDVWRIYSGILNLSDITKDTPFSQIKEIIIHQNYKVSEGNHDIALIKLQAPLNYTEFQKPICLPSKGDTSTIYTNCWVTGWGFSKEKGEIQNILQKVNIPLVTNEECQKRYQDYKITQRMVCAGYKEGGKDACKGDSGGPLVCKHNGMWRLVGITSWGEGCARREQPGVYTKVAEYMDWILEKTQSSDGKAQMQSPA
T3 sequence (P03952 20-390 partner limits assumed, species assumed): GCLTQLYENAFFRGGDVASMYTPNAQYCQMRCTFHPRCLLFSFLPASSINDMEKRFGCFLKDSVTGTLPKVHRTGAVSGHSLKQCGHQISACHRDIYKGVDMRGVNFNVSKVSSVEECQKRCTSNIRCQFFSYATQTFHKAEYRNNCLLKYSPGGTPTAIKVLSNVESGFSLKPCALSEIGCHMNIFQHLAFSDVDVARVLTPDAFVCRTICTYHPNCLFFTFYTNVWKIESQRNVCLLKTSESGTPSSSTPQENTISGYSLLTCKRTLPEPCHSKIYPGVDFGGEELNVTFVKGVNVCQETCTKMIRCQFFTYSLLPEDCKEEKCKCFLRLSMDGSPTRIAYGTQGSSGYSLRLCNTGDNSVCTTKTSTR
tPA, sequence (P00750 36-562): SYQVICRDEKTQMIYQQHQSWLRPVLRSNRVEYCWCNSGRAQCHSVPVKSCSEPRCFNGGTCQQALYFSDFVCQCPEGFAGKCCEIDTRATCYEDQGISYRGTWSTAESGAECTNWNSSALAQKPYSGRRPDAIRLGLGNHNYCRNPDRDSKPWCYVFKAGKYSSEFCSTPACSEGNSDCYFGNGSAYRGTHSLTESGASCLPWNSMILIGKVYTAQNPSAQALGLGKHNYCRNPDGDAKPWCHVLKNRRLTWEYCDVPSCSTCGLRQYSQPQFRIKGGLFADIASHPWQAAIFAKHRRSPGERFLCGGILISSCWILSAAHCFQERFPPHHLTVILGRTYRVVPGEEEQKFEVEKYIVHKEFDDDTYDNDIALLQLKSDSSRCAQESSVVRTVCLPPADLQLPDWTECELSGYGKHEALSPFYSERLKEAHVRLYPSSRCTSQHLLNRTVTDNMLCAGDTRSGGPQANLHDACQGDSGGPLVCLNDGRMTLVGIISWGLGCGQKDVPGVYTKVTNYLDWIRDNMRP
T1 sequence (P00747 581-810 limits assumed): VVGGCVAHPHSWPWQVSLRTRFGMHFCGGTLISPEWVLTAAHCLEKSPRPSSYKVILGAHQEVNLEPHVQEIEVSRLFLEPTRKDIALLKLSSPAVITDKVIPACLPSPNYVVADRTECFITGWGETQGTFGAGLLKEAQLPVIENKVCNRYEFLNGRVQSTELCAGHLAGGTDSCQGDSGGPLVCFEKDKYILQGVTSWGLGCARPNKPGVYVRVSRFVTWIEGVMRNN
T1 sequence (P00747 97-580 partner limits assumed): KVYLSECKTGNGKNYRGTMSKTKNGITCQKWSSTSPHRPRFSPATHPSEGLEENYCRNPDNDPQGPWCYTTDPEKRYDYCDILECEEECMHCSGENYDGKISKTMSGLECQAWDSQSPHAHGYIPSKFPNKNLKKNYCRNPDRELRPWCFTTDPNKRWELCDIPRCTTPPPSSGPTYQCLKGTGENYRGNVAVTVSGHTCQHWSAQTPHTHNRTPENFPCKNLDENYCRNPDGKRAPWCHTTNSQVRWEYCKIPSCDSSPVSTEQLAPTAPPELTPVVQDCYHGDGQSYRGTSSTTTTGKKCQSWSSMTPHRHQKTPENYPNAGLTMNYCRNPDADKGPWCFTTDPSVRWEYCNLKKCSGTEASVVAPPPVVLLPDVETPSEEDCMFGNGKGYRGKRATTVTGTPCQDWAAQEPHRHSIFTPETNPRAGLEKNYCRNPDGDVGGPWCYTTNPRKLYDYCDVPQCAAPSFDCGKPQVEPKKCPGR
glandular kallikrein, sequence (P00752 8-246): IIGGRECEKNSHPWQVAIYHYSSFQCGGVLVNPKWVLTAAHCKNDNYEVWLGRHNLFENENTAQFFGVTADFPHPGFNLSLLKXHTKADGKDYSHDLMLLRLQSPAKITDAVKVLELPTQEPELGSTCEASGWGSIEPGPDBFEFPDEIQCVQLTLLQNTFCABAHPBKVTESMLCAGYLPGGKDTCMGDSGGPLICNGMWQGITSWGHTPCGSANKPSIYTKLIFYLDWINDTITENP
factor Xa, sequence (P00743 234-492 limits assumed): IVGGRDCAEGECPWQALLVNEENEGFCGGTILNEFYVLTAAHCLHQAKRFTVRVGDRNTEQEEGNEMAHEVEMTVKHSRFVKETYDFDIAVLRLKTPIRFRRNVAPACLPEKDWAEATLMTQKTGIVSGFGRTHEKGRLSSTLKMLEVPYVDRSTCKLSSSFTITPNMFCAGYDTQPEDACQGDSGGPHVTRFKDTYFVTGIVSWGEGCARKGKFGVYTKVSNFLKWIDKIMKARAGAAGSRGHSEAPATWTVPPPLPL
factor Xa, sequence (P00743 41-180 partner limits assumed): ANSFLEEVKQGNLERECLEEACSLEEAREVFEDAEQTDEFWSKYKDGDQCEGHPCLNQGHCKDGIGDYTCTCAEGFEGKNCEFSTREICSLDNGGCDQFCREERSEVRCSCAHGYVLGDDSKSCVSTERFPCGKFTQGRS

CC1CCN(C(=O)C(Cc2cccc(C(=N)N)c2)NS(=O)(=O)c2ccc3ccccc3c2)CC1 (racemic) [Compound 34]
Ki (plasmin): 4 µM | Ki (factor XIIa): > 1000 µM | Ki (tPA): 460 µM | influence on prothrombin time (PT) (human plasma): obtained by higher inhibitor concentrations

N=C(N)c1cccc(CC(NS(=O)(=O)c2ccc3ccccc3c2)C(=O)N2CCCCC2C(=O)O)c1 (racemic) [Compound 83]
Ki (thrombin): 0.26 µM | Ki (factor Xa): 38 µM | Ki (plasmin): 34 µM | Ki (factor XIIa): > 1000 µM | Ki (tPA): 205 µM | Ki (glandular kallikrein): ~1000 µM | Ki (plasma kallikrein): 32 µM | LD50 at 168 h (in vivo; iv): 272 mg/kg | LD50 at 168 h (in vivo; po): > 3000 mg/kg | concentration at 0.25 h [1]: 133 ng/mL | concentration at 0.5 h [1]: 79 ng/mL | concentration at 1 h [1]: 50 ng/mL | concentration at 1.5 h [1]: 37 ng/mL | concentration at 2 h [1]: 38 ng/mL | concentration at 3 h [1]: 25 ng/mL | concentration at 4 h [1]: 23 ng/mL | pharmacokinetic properties ([2]; in words, compared with NAPAP): improved pharmacokinetic properties | Concentration in plasma ([2]; rat, 120 min): 0 ng/mL | Concentration in plasma ([2]; rat, 180 min): 0 ng/mL | concentration at 2 min ([2]; rat, plasma, iv, 1 mg/kg): 1900 ng/mL | concentration at 5 min ([2]; rat, plasma, iv, 1 mg/kg): 928 ng/mL | concentration at 10 min ([2]; rat, plasma, iv, 1 mg/kg): 496 ng/mL | concentration at 0.25 h ([2]; rat, plasma, iv, 1 mg/kg): 243 ng/mL | concentration at 0.5 h ([2]; rat, plasma, iv, 1 mg/kg): 150 ng/mL | concentration at 0.75 h ([2]; rat, plasma, iv, 1 mg/kg): 115 ng/mL | concentration at 1 h ([2]; rat, plasma, iv, 1 mg/kg): 85 ng/mL | concentration at 1.5 h ([2]; rat, plasma, iv, 1 mg/kg): 45 ng/mL | concentration at 0.25 h ([3]; plasma, sc, 5 mg/kg): 402 ng/mL | concentration at 0.5 h ([3]; plasma, sc, 5 mg/kg): 620 ng/mL | concentration at 0.75 h ([3]; plasma, sc, 5 mg/kg): 626 ng/mL | concentration at 1 h ([3]; plasma, sc, 5 mg/kg): 568 ng/mL | concentration at 1.5 h ([3]; plasma, sc, 5 mg/kg): 467 ng/mL | concentration at 2 h ([3]; plasma, sc, 5 mg/kg): 415 ng/mL | concentration at 3 h ([3]; plasma, sc, 5 mg/kg): 314 ng/mL | concentration at 4 h ([3]; plasma, sc, 5 mg/kg): 297 ng/mL

CC1CCN(C(=O)C(Cc2cccc(C(=N)N)c2)NS(=O)(=O)c2ccc3ccccc3c2)C(C(=O)O)C1 (racemic) [Compound 86]
Ki (thrombin): 0.12 µM | Ki (factor Xa): 96 µM | Ki (trypsin): 1.2 µM | Ki (plasmin): 42 µM | Ki (factor XIIa): > 1000 µM | Ki (tPA): 470 µM | Ki (glandular kallikrein): > 1000 µM | Ki (plasma kallikrein): 84 µM

N=C(N)c1cccc(CC(NS(=O)(=O)c2ccc3ccccc3c2)C(=O)N2Cc3ccccc3CC2C(=O)O)c1 (racemic) [Compound 134, N-α-(2-Naphtylsulfonyl)-3-amidino-(D,L)-phenylalanyl-1,2,3,4-tetrahydroisoquinoline-3-carboxylic acid]
Ki (thrombin): 0.018 µM | Ki (factor Xa): 42 µM | Ki (plasmin): 0.67 µM | Ki (factor XIIa): > 1000 µM | Ki (tPA): > 1000 µM | Ki (glandular kallikrein): 390 µM | Ki (plasma kallikrein): 1.5 µM | LD50 at 168 h (in vivo; iv): 29 mg/kg | LD50 at 168 h (in vivo; po): > 3000 mg/kg | concentration at 0.25 h [1]: 188 ng/mL | concentration at 0.5 h [1]: 260 ng/mL | concentration at 0.75 h [1]: 297 ng/mL | concentration at 1 h [1]: 260 ng/mL | concentration at 2 h [1]: 234 ng/mL | concentration at 3 h [1]: 236 ng/mL | concentration at 4 h [1]: 210 ng/mL | concentration at 5 h [1]: 157 ng/mL | concentration at 6 h [1]: 86 ng/mL | Concentration in plasma ([2]; rat, 90 min): 0 ng/mL | concentration at 2 min ([2]; rat, plasma, iv, 1 mg/kg): 4440 ng/mL | concentration at 5 min ([2]; rat, plasma, iv, 1 mg/kg): 1680 ng/mL | concentration at 10 min ([2]; rat, plasma, iv, 1 mg/kg): 775 ng/mL | concentration at 0.25 h ([2]; rat, plasma, iv, 1 mg/kg): 621 ng/mL | concentration at 0.5 h ([2]; rat, plasma, iv, 1 mg/kg): 79 ng/mL | concentration at 0.75 h ([2]; rat, plasma, iv, 1 mg/kg): 78 ng/mL | concentration at 1 h ([2]; rat, plasma, iv, 1 mg/kg): 10 ng/mL | concentration at 0.5 h ([3]; plasma, sc, 5 mg/kg): 35 ng/mL | concentration at 0.75 h ([3]; plasma, sc, 5 mg/kg): 72 ng/mL | concentration at 1 h ([3]; plasma, sc, 5 mg/kg): 79 ng/mL | concentration at 1.5 h ([3]; plasma, sc, 5 mg/kg): 92 ng/mL | concentration at 2 h ([3]; plasma, sc, 5 mg/kg): 145 ng/mL | concentration at 3 h ([3]; plasma, sc, 5 mg/kg): 285 ng/mL | concentration at 4 h ([3]; plasma, sc, 5 mg/kg): 268 ng/mL | concentration at 5 h ([3]; plasma, sc, 5 mg/kg): 248 ng/mL | Concentration in plasma ([3]; s.c. 5 mg/kg, 15 min): 0 ng/mL

CC1CCN(C(=O)C(Cc2cccc(C(=N)N)c2)NC(=O)CNS(=O)(=O)c2ccc3ccccc3c2)CC1 (racemic) [Compound 156, N-α-(2-Naphthylsulfonyl)-glycyl-3-amidino-(D,L)-phenylalanine-4-methylpiperidide]
Ki (thrombin): 3.6 µM | Ki (factor Xa): 25 µM | Ki (trypsin): 46 µM | Ki (plasmin): 46 µM | Ki (factor XIIa): 350 µM | Ki (tPA): 340 µM | Ki (glandular kallikrein): > 1000 µM | Ki (plasma kallikrein): 68 µM

CC1CCN(C(=O)C(Cc2cccc(CN)c2)NS(=O)(=O)c2ccc3ccccc3c2)CC1 (racemic) [Compound 182, N-α-(2-Naphthylsulfonyl)-3-aminomethyl-(D,L)-phenylalanyl-4-methylpiperidide]
Ki (thrombin): 1.9 µM | Ki (factor Xa): 500 µM | Ki (trypsin): 3.4 µM | Ki (plasmin): 27 µM | Ki (factor XIIa): < 1000 µM | Ki (tPA): > 1000 µM | Ki (glandular kallikrein): 76 µM | Ki (plasma kallikrein): > 1000 µM

Reference: patent US5518735A, “Meta-substituted phenylalanine derivatives” (priority 1990, dated 1996)
